Assay results reported in ChEMBL document CHEMBL1821675, “The selective P-TEFb inhibitor CAN508 targets angiogenesis” (Eur J Med Chem, 2011).
Active and inactive are the calls of the source. The rule behind the calls is not given here.

Assays:
[1] = Cytotoxicity against human Hs 578T cells; type: functional
T47D = test: Cytotoxicity against human T47D cells; type: functional
COLO 205 = test: Cytotoxicity against human COLO205 cells; type: functional
HOP-92 = test: Cytotoxicity against human HOP92 cells; type: functional
CCRF-CEM = test: Cytotoxicity against human CCRF-CEM cells; type: functional
LOX IMVI = test: Cytotoxicity against human LOXIMVI cells; type: functional
M14 = test: Cytotoxicity against human M14 cells; type: functional
Malme-3M = test: Cytotoxicity against human MALME-3M cells; type: functional
MDA-MB-435 = test: Cytotoxicity against human MDA-MB-435 cells; type: functional
SK-MEL-2 = test: Cytotoxicity against human SK-MEL-2 cells; type: functional
SK-MEL-5 = test: Cytotoxicity against human SK-MEL-5 cells; type: functional
IGROV-1 = test: Cytotoxicity against human IGROV1 cells; type: functional
DU-145 = test: Cytotoxicity against human DU145 cells; type: functional
PC-3 = test: Cytotoxicity against human PC3 cells; type: functional
786-0 = test: Cytotoxicity against human 786-0 cells; type: functional
ACHN = test: Cytotoxicity against human ACHN cells; type: functional
SN12C = test: Cytotoxicity against human SN12C cells; type: functional
TK-10 = test: Cytotoxicity against human TK10 cells; type: functional
[2] = Antiangiogenic activity in VEGF-stimulated HMEC1 assessed as reduction in median length of tube at 20 uM after 16 hrs by photographic analysis; type: functional, Homo sapiens, HMEC-1; design: scale not given: the % may be the effect or the level left
[3] = target: Cyclin-dependent kinase 9 (Homo sapiens) (UniProt P50750); test: Inhibition of CDK9-catalyzed RNA polymerase 2 phosphorylation at Ser2 in human MCF7 cells after 2 hrs by immunoblotting; type: cell-based
[4] = target: Cyclin-dependent kinase 7 (Homo sapiens) (UniProt P50613); test: Inhibition of CDK7-catalyzed RNA polymerase 2 phosphorylation at Ser5 in human HMEC1 cells at 5 to 40 uM after 2 hrs by immunoblotting; type: cell-based
[5] = target: Aurora kinase A (Homo sapiens) (UniProt O14965); test: Inhibition of Aurora A assessed as residual activity at 10 uM by radioactivity assay in presence of 5 uM ATP
[6] = target: Tyrosine-protein kinase BTK (Homo sapiens) (UniProt Q06187); test: Inhibition of BTK assessed as residual activity at 10 uM by radioactivity assay in presence of 50 uM ATP
[7] = target: Ephrin type-B receptor 3 (Homo sapiens) (UniProt P54753); test: Inhibition of EPH-B3 assessed as residual activity at 10 uM by radioactivity assay in presence of 20 uM ATP
[8] = target: Ephrin type-B receptor 4 (Homo sapiens) (UniProt P54760); test: Inhibition of EPH-B4 assessed as residual activity at 10 uM by radioactivity assay in presence of 50 uM ATP
[9] = target: Receptor tyrosine-protein kinase erbB-4 (Homo sapiens) (UniProt Q15303); test: Inhibition of HER4 assessed as residual activity at 10 uM by radioactivity assay in presence of 5 uM ATP
[10] = target: Homeodomain-interacting protein kinase 3 (Homo sapiens) (UniProt Q9H422); test: Inhibition of HIPK3 assessed as residual activity at 10 uM by radioactivity assay in presence of 20 uM ATP
[11] = target: Insulin receptor-related protein (Homo sapiens) (UniProt P14616); test: Inhibition of IRR assessed as residual activity at 10 uM by radioactivity assay in presence of 5 uM ATP
[12] = target: Tyrosine-protein kinase Lck (Homo sapiens) (UniProt P06239); test: Inhibition of Lck assessed as residual activity at 10 uM by radioactivity assay in presence of 50 uM ATP
[13] = target: Serine/threonine-protein kinase STK11 (Homo sapiens) (UniProt Q15831); test: Inhibition of LKB1 assessed as residual activity at 10 uM by radioactivity assay in presence of 20 uM ATP
[14] = target: MAP kinase-activated protein kinase 3 (Homo sapiens) (UniProt Q16644); test: Inhibition of MAPKAP-K3 assessed as residual activity at 10 uM by radioactivity assay in presence of 20 uM ATP
[15] = target: Mitogen-activated protein kinase kinase kinase 9 (Homo sapiens) (UniProt P80192); test: Inhibition of MLK1 assessed as residual activity at 10 uM by radioactivity assay in presence of 20 uM ATP
[16] = target: Ribosomal protein S6 kinase alpha-5 (Homo sapiens) (UniProt O75582); test: Inhibition of MSK1 assessed as residual activity at 10 uM by radioactivity assay in presence of 20 uM ATP
[17] = target: Serine/threonine-protein kinase 26 (Homo sapiens) (UniProt Q9P289); test: Inhibition of MST4 assessed as residual activity at 10 uM by radioactivity assay in presence of 20 uM ATP
[18] = target: Serine/threonine-protein kinase pim-3 (Homo sapiens) (UniProt Q86V86); test: Inhibition of PIM3 assessed as residual activity at 10 uM by radioactivity assay in presence of 20 uM ATP
[19] = target: Protein kinase C alpha type (Homo sapiens) (UniProt P17252); test: Inhibition of PKCalpha assessed as residual activity at 10 uM by radioactivity assay in presence of 20 uM ATP
[20] = target: Serine/threonine-protein kinase N2 (Homo sapiens) (UniProt Q16513); test: Inhibition of PRK2 assessed as residual activity at 10 uM by radioactivity assay in presence of 5 uM ATP
[21] = target: Ribosomal protein S6 kinase beta-1 (Homo sapiens) (UniProt P23443); test: Inhibition of S6K1 assessed as residual activity at 10 uM by radioactivity assay in presence of 20 uM ATP
[22] = target: Serine/threonine-protein kinase Sgk1 (Homo sapiens) (UniProt O00141); test: Inhibition of SGK1 assessed as residual activity at 10 uM by radioactivity assay in presence of 20 uM ATP
[23] = target: Mitogen-activated protein kinase kinase kinase 7 (Homo sapiens) (UniProt O43318); test: Inhibition of TAK1 assessed as residual activity at 10 uM by radioactivity assay in presence of 5 uM ATP
[24] = target: High affinity nerve growth factor receptor (Homo sapiens) (UniProt P04629); test: Inhibition of TrkA assessed as residual activity at 10 uM by radioactivity assay in presence of 20 uM ATP
HUVEC = test: Antiangiogenic activity against HUVEC cells assessed as inhibition of VEGF-induced cell migration-associated wound closure at >10 uM after 16 hrs by microscopic analysis; type: functional, cell-based; conditions: Homo sapiens
[25] = target: 3-phosphoinositide-dependent protein kinase 1 (Homo sapiens) (UniProt O15530); test: Inhibition of PDK1 assessed as residual activity at 10 uM by radioactivity assay in presence of 20 uM ATP

Chain of Insulin receptor-related protein (Homo sapiens) (P14616 27-742 limits assumed): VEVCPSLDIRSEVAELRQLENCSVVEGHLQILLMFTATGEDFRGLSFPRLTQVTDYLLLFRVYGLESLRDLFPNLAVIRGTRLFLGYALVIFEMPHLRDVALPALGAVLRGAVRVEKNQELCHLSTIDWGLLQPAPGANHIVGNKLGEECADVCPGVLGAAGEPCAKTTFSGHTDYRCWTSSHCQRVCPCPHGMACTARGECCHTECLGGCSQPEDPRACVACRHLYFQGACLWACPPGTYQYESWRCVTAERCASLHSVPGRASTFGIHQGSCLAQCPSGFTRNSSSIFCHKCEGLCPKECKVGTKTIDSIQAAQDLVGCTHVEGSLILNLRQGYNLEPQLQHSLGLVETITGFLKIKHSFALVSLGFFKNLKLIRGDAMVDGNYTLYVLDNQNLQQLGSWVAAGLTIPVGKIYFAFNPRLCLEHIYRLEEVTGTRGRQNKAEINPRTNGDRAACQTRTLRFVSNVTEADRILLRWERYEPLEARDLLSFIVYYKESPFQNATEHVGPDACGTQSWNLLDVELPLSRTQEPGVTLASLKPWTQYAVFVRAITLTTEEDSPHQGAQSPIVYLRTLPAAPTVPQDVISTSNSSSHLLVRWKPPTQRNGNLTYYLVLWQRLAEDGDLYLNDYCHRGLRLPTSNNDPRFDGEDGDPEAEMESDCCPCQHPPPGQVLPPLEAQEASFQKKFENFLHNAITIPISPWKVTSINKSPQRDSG
Chain of Insulin receptor-related protein (Homo sapiens) (P14616 747-1297 limits assumed): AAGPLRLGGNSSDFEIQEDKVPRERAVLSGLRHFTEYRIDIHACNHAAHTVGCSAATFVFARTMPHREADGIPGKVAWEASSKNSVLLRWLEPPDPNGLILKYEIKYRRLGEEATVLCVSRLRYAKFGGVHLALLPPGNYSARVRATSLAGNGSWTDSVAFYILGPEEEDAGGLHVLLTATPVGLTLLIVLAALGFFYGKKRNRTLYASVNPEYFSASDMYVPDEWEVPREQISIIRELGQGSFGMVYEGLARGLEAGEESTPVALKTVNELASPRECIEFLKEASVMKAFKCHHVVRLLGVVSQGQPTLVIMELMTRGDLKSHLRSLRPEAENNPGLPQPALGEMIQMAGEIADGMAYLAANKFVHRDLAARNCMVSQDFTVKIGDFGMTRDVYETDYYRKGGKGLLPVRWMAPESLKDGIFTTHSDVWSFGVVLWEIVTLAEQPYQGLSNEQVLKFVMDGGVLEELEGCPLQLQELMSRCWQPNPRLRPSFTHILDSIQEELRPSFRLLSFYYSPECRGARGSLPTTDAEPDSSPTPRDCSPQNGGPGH
Chain of Mitogen-activated protein kinase kinase kinase 9 (Homo sapiens) (P80192 whole entry, looked up): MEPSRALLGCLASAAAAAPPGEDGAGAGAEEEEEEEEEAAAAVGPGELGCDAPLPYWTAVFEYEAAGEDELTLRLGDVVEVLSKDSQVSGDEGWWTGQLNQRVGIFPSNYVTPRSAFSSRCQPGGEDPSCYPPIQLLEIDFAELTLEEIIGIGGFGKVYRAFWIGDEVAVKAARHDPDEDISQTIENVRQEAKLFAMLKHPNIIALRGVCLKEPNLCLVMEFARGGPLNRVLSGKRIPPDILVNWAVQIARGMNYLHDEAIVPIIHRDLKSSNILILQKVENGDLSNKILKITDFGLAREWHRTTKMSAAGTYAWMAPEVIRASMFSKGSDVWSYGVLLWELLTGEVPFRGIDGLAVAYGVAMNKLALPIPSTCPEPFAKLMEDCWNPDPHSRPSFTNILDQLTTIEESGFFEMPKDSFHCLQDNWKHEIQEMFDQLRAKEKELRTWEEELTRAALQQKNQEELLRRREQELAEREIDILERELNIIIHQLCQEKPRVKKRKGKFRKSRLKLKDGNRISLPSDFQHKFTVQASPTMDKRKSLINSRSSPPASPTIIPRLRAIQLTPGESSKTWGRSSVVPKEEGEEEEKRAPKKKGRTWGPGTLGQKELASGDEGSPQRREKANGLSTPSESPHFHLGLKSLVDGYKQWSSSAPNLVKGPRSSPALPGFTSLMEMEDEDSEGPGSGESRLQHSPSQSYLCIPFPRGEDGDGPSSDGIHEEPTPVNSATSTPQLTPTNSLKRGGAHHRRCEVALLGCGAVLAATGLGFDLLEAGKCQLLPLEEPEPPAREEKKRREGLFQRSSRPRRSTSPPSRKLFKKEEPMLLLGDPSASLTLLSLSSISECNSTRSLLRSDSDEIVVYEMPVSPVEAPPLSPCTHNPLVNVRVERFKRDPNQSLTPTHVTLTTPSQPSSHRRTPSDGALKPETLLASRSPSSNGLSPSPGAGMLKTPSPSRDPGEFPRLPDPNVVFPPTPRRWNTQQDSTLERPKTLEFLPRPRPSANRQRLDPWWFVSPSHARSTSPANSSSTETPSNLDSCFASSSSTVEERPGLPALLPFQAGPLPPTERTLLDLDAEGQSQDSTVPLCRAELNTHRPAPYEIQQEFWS
Chain of Serine/threonine-protein kinase STK11 (Homo sapiens) (Q15831 whole entry): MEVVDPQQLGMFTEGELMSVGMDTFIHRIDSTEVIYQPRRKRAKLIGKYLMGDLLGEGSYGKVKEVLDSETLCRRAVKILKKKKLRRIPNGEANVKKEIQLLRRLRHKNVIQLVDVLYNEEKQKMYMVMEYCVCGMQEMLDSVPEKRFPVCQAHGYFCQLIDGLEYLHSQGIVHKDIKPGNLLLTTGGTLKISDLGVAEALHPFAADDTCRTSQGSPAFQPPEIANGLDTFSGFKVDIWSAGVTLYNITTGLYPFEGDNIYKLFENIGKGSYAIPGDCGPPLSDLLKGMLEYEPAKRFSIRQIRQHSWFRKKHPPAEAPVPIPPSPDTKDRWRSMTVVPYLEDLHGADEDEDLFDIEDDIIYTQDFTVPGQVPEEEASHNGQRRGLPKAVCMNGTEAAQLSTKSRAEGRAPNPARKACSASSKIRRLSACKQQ
Chain of Serine/threonine-protein kinase 26 (Homo sapiens) (Q9P289 2-416 limits assumed): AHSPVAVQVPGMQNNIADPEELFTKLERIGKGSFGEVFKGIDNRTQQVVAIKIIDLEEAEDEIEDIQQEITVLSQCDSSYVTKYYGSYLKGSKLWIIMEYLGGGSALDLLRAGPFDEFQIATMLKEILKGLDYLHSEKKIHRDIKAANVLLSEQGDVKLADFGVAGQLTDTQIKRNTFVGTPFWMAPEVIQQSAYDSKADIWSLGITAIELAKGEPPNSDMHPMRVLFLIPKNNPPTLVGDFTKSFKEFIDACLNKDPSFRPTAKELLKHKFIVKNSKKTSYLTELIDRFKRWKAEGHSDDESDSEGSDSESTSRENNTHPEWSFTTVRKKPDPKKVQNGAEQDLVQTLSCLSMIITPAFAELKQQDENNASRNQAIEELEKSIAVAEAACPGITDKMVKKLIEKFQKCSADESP
Chain of High affinity nerve growth factor receptor (Homo sapiens) (P04629 33-796 limits assumed): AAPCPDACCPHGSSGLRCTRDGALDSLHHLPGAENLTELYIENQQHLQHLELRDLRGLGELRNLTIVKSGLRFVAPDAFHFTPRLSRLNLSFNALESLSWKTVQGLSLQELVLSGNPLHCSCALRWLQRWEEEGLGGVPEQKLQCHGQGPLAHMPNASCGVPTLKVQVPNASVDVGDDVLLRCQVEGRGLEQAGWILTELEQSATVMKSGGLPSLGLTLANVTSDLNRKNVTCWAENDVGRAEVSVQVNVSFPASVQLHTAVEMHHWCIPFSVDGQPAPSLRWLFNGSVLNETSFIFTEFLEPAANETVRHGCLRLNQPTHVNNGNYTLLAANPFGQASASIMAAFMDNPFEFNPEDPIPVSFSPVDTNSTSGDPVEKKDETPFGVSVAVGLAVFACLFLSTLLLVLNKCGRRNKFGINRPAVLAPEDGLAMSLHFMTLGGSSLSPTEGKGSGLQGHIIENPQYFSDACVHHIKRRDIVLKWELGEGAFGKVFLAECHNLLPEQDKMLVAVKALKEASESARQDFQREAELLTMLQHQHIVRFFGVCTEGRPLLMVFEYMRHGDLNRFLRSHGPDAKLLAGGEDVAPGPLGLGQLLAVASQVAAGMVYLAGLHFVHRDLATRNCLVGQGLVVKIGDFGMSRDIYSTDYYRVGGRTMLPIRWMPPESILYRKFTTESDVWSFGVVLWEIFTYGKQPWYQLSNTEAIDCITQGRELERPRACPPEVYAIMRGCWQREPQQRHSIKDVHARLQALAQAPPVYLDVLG
Chain of MAP kinase-activated protein kinase 3 (Homo sapiens) (Q16644 whole entry, looked up): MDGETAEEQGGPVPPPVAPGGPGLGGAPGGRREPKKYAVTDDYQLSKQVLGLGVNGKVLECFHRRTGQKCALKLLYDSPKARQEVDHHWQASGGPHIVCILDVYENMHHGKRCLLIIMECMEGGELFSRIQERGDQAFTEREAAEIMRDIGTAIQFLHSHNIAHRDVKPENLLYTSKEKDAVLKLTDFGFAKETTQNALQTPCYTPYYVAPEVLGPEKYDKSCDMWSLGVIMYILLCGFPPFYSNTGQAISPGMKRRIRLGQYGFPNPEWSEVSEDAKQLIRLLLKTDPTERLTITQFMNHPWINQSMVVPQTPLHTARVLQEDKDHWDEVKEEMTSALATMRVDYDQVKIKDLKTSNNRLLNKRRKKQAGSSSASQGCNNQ

Which GI50 [1] does the source give for `Nc1n[nH]c(N)c1/N=N/c1ccc(O)cc1` here?
The GI50 was 21.8 µM.

What about the GI50 (T47D) of the same compound?
The GI50 was 14.2 µM.

What about the GI50 (COLO 205) of the same compound?
Its GI50 is 18.9 µM.

What about the GI50 (HOP-92) of the same compound?
Its GI50 is 18.2 µM.

What about the GI50 (CCRF-CEM) of the same compound?
Its GI50 is 20 µM.

And the GI50 (LOX IMVI)?
Its GI50 is 4.1 µM.

What about the GI50 (M14) of the same compound?
The GI50 was 15.9 µM.

And the GI50 (Malme-3M)?
The GI50 was 24.5 µM.

What about the GI50 (MDA-MB-435) of the same compound?
The GI50 was 17.1 µM.

And the GI50 (SK-MEL-2)?
Its GI50 is 14.4 µM.

What about the GI50 (SK-MEL-5) of the same compound?
Its GI50 is 13.9 µM.

And the GI50 (IGROV-1)?
The GI50 was 20.6 µM.

And the GI50 (DU-145)?
Its GI50 is 17 µM.

What about the GI50 (PC-3) of the same compound?
Its GI50 is 20.3 µM.

And the GI50 (786-0)?
The GI50 was 26.2 µM.

And the GI50 (ACHN)?
Its GI50 is 15.6 µM.

What about the GI50 (SN12C) of the same compound?
The GI50 was 23.3 µM.

And the GI50 (TK-10)?
Its GI50 is 25.6 µM.

What about the Activity [2] of the same compound?
Its Activity is 30%.

What about the inhibition [3] of the same compound?
The inhibition was “Dose-dependent effect”.

What about the inhibition [4] of the same compound?
The inhibition was “Active”.

And the Activity [5]?
Its Activity is 107%.

And the Activity [6]?
The Activity was 41%.

And the Activity [7]?
The Activity was 45%.

And the Activity [8]?
Its Activity is 99%.

And the Activity [9]?
Its Activity is 59%.

What about the Activity [10] of the same compound?
The Activity was 84%.

What about the Activity [11] of the same compound?
Its Activity is 29%.

And the Activity [12]?
Its Activity is 113%.

What about the Activity [13] of the same compound?
Its Activity is 37%.

What about the Activity [14] of the same compound?
Its Activity is 89%.

And the Activity [15]?
Its Activity is 39%.

And the Activity [16]?
The Activity was 88%.

What about the Activity [17] of the same compound?
The Activity was 77%.

And the Activity [18]?
Its Activity is 19%.

And the Activity [19]?
Its Activity is 83%.

What about the Activity [20] of the same compound?
Its Activity is 30%.

What about the Activity [21] of the same compound?
Its Activity is 79%.

And the Activity [22]?
Its Activity is 94%.

And the Activity [23]?
The Activity was 53%.

And the Activity [24]?
The Activity was 98%.

And the inhibition (HUVEC)?
The inhibition was “Active”.

And the Activity [25]?
Its Activity is 66%.
